Reference: PMC5766630, “Non-estrogenic Xanthohumol Derivatives Mitigate Insulin Resistance and Cognitive Impairment in High-Fat Diet-induced Obese Mice” (Scientific Reports, 2018)

What was measured:
HepG2 cells = experiment: MTT cell viability assay, HepG2; type: cell-based, human; conditions: 24 h exposure, vs vehicle-treated control cells
Protocol: (§1) For cell viability experiments using the MTT assay, mouse C2C12 skeletal muscle myoblasts (ATCC; Manassas, VA, USA) and the human hepatocyte cell line, HepG2 (ATCC; Manassas, VA, USA), were plated in 96-well plates at a density of 4,000 to 10,000 cells per well in 200 μL of DMEM medium supplemented with 10% FBS, 1% glutamine, 1 mM of sodium pyruvate, 100 units/mL penicillin, and 100 μg/mL streptomycin. After incubating 48 h, the medium was removed and the cells were treated with fresh solutions of various concentrations of XN, DXN or TXN in phenol red-free DMEM plus supplements. The final concentrations of XN, DXN, TXN were 1, 2, 5, 8, 10, 25, or 50 μM, in quadruplicate wells. The plates were then incubated for 1 h (for C2C12) or 24 h for HepG2. After removing the medium, the cells were incubated for 2 h with a 0.5 mg/mL solution of MTT in phenol red-free culture medium. After removing the medium and adding a solution of acidified isopropanol to each well, the absorbance of each well was measured at 570 nm by using a spectrometer (SpectraMax 190, Molecular Devices, Sunnyvale, CA, USA). Cell viability of compound-treated cells was calculated as % absorbance of vehicle-treated control cells (Supplementary Fig. S1a and S1b).

[1] = test system: C2C12 skeletal muscle myoblasts; experiment: MTT cell viability assay, C2C12; type: cell-based, mouse; conditions: 1 h exposure, up to 50 μM
Protocol: as §1

MCF-7 cells = experiment: MCF-7 cell proliferation, sulforhodamine B (SRB) assay; type: cell-based, human; conditions: 48 h exposure, vs vehicle control; for MCF-7 cell viability/proliferation at low concentrations: 0.001–1 µM
Protocol: The SRB assay has been used to study the effects of phytochemicals such as XN, DXN and 8-PN on cell proliferation of various cancer cell lines, including MCF-7 cells[91],[92]. SRB is a dye that binds to cellular proteins of adherent cells and the absorbance readings are a measure of the number of viable cells (cell mass) attached to the culture plate after incubation with the test compounds (samples) in comparison with vehicle control cells. The cell mass is then extrapolated as a measurement of cell viability and cell proliferation. Increased proliferation of MCF-7 cells is one of the measures of estrogenicity of phytochemicals. MCF-7 cells were plated at 10,000 cells/well in 96-well plates in DMEM medium containing 10% charcoal-stripped FBS and antibiotics. […] After incubation with the test compounds for 48 h, the cell culture medium was removed from each well of the 96-well plate and the cells were fixed for 1 h with 10% trichloroacetic acid. The cells on the plate were washed five with distilled water, air-dried, and then stained with SRB dye (0.4% w/v in 1% acetic acid). Excess dye was removed by washing the plate five times with 1% acetic acid. The plates were air-dried and the adsorbed dye was solubilized in 10 mM Tris buffer for 5 min on a shaker before reading the optical density (OD) at 565 nm. The percentage cell viability/proliferation was calculated as follows: (ODSample−ODZeroblank)/(ODControl−ODZeroblank)×100. Mean values and the coefficient of variation (CV) from six replicate wells were calculated and a one-way ANOVA was used to compare statistical differences between treated and control cells, with p < 0.05 as the level of significance.

[2] = target: T1, full-length purified human estrogen receptor ERα (Homo sapiens, UniProt P03372); experiment: ERα competitive radiometric binding assay; conditions: RBA = IC50[estradiol]/IC50[compound] × 100, estradiol = 100; 2 nM [3H]-estradiol tracer, 18–24 h at 0 °C
T1 construct: full-length purified human estrogen receptors ERα and ERβ
T1 sequence (P03372 1-595): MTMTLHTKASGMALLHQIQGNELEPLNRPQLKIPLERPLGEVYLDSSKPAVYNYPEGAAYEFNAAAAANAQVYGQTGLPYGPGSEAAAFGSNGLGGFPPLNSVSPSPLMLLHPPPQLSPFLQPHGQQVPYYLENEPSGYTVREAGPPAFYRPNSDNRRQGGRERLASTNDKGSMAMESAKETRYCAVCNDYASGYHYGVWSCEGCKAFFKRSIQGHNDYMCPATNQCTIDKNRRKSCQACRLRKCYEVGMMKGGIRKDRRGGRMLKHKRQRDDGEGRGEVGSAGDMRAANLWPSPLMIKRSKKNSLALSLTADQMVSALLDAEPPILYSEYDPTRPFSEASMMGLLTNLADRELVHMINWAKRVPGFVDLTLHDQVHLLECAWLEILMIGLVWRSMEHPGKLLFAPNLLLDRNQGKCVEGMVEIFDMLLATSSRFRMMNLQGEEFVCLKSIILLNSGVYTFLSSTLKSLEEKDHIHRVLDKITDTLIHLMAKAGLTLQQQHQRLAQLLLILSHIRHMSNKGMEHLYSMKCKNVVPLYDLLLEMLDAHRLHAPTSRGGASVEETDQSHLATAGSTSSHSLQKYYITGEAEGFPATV
Protocol: The receptors and ligands were incubated for 18–24 h at 0 °C and then the receptor–ligand complexes separated using hydroxyapatite (BioRad, Hercules, CA, USA).

[3] = test system: C57BL/6J mice fed a high-fat diet; experiment: In vivo liver toxicity: plasma AST and ALT; design: species or system mouse; conditions: male C57BL/6J mice, HFD, 30 mg/kg/day in diet, 13 weeks; mean ± SE, n = 11–12
Source text: Nine-week old male C57BL/6J mice, obtained from The Jackson Laboratory (Bar Harbor, ME, USA), were housed individually in plastic cages under a 12–12-hr light-dark cycle. They were assigned randomly to four groups consisting of 12 mice each. One group (control) was fed a HFD (Dyets Inc., Bethlehem, PA, USA) containing 60%, 20% and 20% total calories from fat, carbohydrate and protein, respectively, and the other three groups were fed the HFD containing XN, DXN, or TXN. The test compounds were dissolved in an isotropic mixture of oleic acid:propylene glycol:Tween 80, 0.9:1:1 by weight (OPT) before incorporation into the HFD. The control diet contained an identical amount of OPT. All diets were prepared in pellet form by Dyets, Inc. (Bethlehem, PA, USA). The mouse diets were formulated to deliver a dose of 30 mg test compound per kg body weight per day. Food intake was measured three times per week and body weights were recorded weekly. At the end of 13 weeks of feeding, the mice were euthanized and blood, liver and skeletal muscle were collected for analyses. All animal protocols were approved by Institutional Animal Care and Use Committee (IACUC) at Oregon State University. Animal experiments were carried out in accordance with the relevant guidelines and regulations.
Plasma triglycerides and total cholesterol were analyzed with commercially available kits (Fisher-Scientific, Pittsburgh, PA, USA). Plasma glucose was analyzed by a test kit obtained from Wako Diagnostics (Mountain View, CA, USA). Plasma insulin and leptin were analyzed by ELISA kits purchased from Alpco Diagnostics (Salem, NH, USA) and Crystal Chem (Downers Grove, IL, USA), respectively. Homeostasis Model Assessment of Insulin Resistance (HOMA-IR) was calculated as follows: fasting plasma insulin concentration (mU/L) × fasting plasma glucose level (mmol/L)/22.5[95]. Plasma levels of AST and ALT were measured using commercially-available kits (Bioo Scientific Corp., Austin, TX, USA) as indicators of in vivo liver toxicity.

Row | Compound | HepG2 cell viability (MTT), 1–25 µM (HepG2 cells) | C2C12 cell viability (MTT) [1] | MCF-7 cell viability/proliferation at 10 µM (MCF-7 cells) | MCF-7 cell viability/proliferation at low concentrations (MCF-7 cells) | RBA ERα (relative binding affinity) [2] | Plasma ALT [3] [U/L] | Plasma AST [3] [U/L]
1 | COc1cc(O)c(CC=C(C)C)c(O)c1C(=O)CCc1ccc(O)cc1 [DXN, α,β-Dihydroxanthohumol] | did not alter cell viability | did not significantly affect cell viability | significantly decreased | did not produce a significant increase | 0.0029 ± 0.0007 | 55.8 ± 6.1 | 105.6 ± 6.5
2 | COc1cc(O)c(CCC(C)C)c(O)c1C(=O)CCc1ccc(O)cc1 [TXN, tetrahydroxanthohumol] | did not alter cell viability | did not significantly affect cell viability | significantly decreased | did not produce a significant increase | 0.0033 ± 0.001 | 56.8 ± 10.5 | 110.5 ± 6.0
3 | COc1cc(O)c(CC=C(C)C)c(O)c1C(=O)/C=C/c1ccc(O)cc1 [XN, 3′-[3,3-dimethylallyl]-2′,4′,4-trihydroxy-6′-methoxychalcone] | did not alter cell viability | did not significantly affect cell viability | significantly decreased | did not produce a significant increase | 0.0021 ± 0.0003 | 68.8 ± 6.8 | 112.3 ± 3.3
